Results reported in US12012390B2, “Flavone compounds for the treatment and prophylaxis of hepatitis B virus disease” (priority 2018, dated 2024).

Tested on: HBeAg level (surrogate marker for cccDNA) in HepDES19 cells
Assay: Engineered HepDES19 primary screen assay (HBeAg as surrogate marker for cccDNA)
Type: cell-based, HBV
Settings: Hepatitis B virus, HepDES19, 120 h, read-out: IC50 (HBeAg) in HepDES19 primary screen assay, HepDES19 cells, 5 days incubation with compound, HBeAg by ELISA
Text: The assay was employed to screen for novel cccDNA inhibitors. HepDES19 is a cccDNA-producing cell line. In this cell line, HBeAg in the cell culture supernatant as surrogate marker, as HBeAg production depends on cccDNA level and activity. HepDES19 is an engineered cell line which contains a 1.1 unit length HBV genome, and pgRNA transcription from the transgene is controlled by Tetracycline (Tet). In the absence of Tet, pgRNA transcription will be induced, but HBV e antigen (HBeAg) could not be produced from this pgRNA due to very short leader sequence before the HBeAg start codon and the start codon is disrupted. Only after cccDNA is formed, the missing leader sequence and start codon mutation would be restored from the 3′-terminal redundancy of pgRNA, and then HBeAg could be synthesized. Therefore, HBeAg could be used as a surrogate marker for cccDNA (Zhou, T. et al., Antiviral Res. (2006), 72(2), 116-124; Guo, H. et al., J. Virol. (2007), 81(22), 12472-12484).
HepDES19 cells were seeded at 2×10^6 cells per T150 flask and cultured with the culture medium (Dulbecco's Modified Eagle Medium: Nutrient Mixture F-12 [DMEM-F12, Gibco Cat. 11320-82], 10% Fetal Bovine Serum [FBS, Clontech Cat. 631101], 0.1 mM Non-Essential Amino Acids Solution [NEAA, Gibco Cat. 11140-050], 50 μg/mL Penicillin-Streptomycin [PS, Invitrogen Cat. 15140-163], 500 μg/mL Geneticin [G418, Invitrogen Cat. 10131-027]) containing 3 μg/mL Tet (Sigma, Cat. 87128) for 5 days. Cells were then seeded at 4×10^6 cells per T150 in the same culture medium as described above in the absence of Tet for 8 days. Cells were then harvested and frozen at density of 2×10^6 cells per mL. For compound testing, the frozen cells were thawed and seeded into 96-well plates at a density of 6×10^4 cells per well. At 24 hrs after seeding, half log serial dilutions of compounds made with Dimethyl sulfoxide (DMSO, Sigma, Cat. D2650) were further diluted with the same culture medium as described above before they were added to the cells to reach desired final compound concentrations and 1% DMSO concentration. Plates were then incubated at 37° C. for another 5 days before measurement of HBeAg level and cell viability. Intracellular HBeAg level were measured with enzyme-linked immunosorbent assay (ELISA) kit (Shanghai Kehua Diagnostic Medical Products Co., Ltd). Cell viability was assessed using Cell Counting Kit-8 (Donjindo, Cat. CK04-20). IC50 values were derived from the dose-response curve using 4 parameter logistic curve fit method.
The compounds of the present invention were tested for their capacity to inhibit extracellular HBeAg level as described herein.

For `O=C(O)COCCOc1ccc(-c2cc(=O)c3c(F)ccc(Cl)c3o2)cc1` [Example 37, 2-[2-[4-(8-chloro-5-fluoro-4-oxo-chromen-2-yl)phenoxy]ethoxy]acetic acid], which IC50 is on record?
Its IC50 is 8.97 µM.

How did the IC50 turn out when `NC(=O)COCCOc1ccc(-c2cc(=O)c3cccc(Cl)c3o2)cc1` [Example 61, 2-[2-[4-(8-chloro-4-oxo-chromen-2-yl)phenoxy]ethoxy]acetamide] was run?
Its IC50 is 0.144 µM.

How did the IC50 turn out when `O=C(O)COCCOc1ccc(-c2oc3c(Cl)cccc3c(=O)c2O)cc1` [Example 59, 2-[2-[4-(8-chloro-3-hydroxy-4-oxo-chromen-2-yl)phenoxy]ethoxy]acetic acid] was run?
The IC50 was 20.2 µM.

Which IC50 does the source give for `COC(=O)[C@H]1C[C@@H](OCCOc2ccc(-c3cc(=O)c4cccc(Cl)c4o3)nn2)C1` [Example 41, Cis-methyl 3-[2-[6-(8-chloro-4-oxo-chromen-2-yl)pyridazin-3-yl]oxyethoxy]cyclobutanecarboxylate] here?
Its IC50 is 12.8 µM.

Which IC50 does the source give for `O=c1cc(-c2ccc(OCCO[C@H]3C[C@@H](C(=O)O)C3)cc2)oc2c(C3CC3)cccc12` [Example 34, Cis-3-[2-[4-(8-cyclopropyl-4-oxo-chromen-2-yl)phenoxy]ethoxy]cyclobutanecarboxylic acid] here?
The IC50 was 16 µM.

How did the IC50 turn out when `O=C(O)COCCOc1ccc(-c2cc(=O)c3cccc(Cl)c3o2)cc1` [Example 9, 2-[2-[4-(8-chloro-4-oxo-chromen-2-yl)phenoxy]ethoxy]acetic acid] was run?
The IC50 was 2.46 µM.

`COc1c(-c2ccc(OCCO[C@H]3C[C@@H](C(=O)O)C3)cc2)oc2c(Cl)cccc2c1=O` [Example 56, Cis-3-[2-[4-(8-chloro-3-methoxy-4-oxo-chromen-2-yl)phenoxy]ethoxy]cyclobutanecarboxylic acid] was tested. Which IC50 did it give?
The IC50 was 29.6 µM.

Which IC50 does the source give for `O=C(O)C1CC(OCCOc2ccc(-c3cc(=O)c4cc(F)cc(Cl)c4o3)cc2)C1` (stereo not drawn) [Example 20, 3-[2-[4-(8-chloro-6-fluoro-4-oxo-chromen-2-yl)phenoxy]ethoxy]cyclobutanecarboxylic acid] here?
Its IC50 is 0.7 µM.

For `O=C(O)C1CC(OCCOc2ccc(-c3oc4c(Cl)cccc4c(=O)c3OCc3ccccc3)cc2)C1` (stereo not drawn) [Example 65, 3-[2-[4-(3-benzyloxy-8-chloro-4-oxo-chromen-2-yl)phenoxy]ethoxy]cyclobutanecarboxylic acid], which IC50 is on record?
The IC50 was 6.5 µM.

How did the IC50 turn out when `O=c1cc(-c2ccc(OCCO[C@H]3CC[C@@H](C(=O)O)CC3)cc2)oc2c(Cl)cccc12` (single isomer, unassigned) [Example 7-A, 4-[2-[4-(8-chloro-4-oxo-chromen-2-yl)phenoxy]ethoxy]cyclohexanecarboxylic acid] was run?
Its IC50 is 15.4 µM.

With `Cc1cccc2c(=O)cc(-c3ccc(OCCO[C@H]4C[C@@H](C(=O)O)C4)cc3)oc12` [Example 35, Cis-3-[2-[4-(8-methyl-4-oxo-chromen-2-yl)phenoxy]ethoxy]cyclobutanecarboxylic acid] as the compound, how does the IC50 read?
Its IC50 is 13.9 µM.

With `CC(C)c1cc(-c2cc(=O)c3cccc(Cl)c3o2)ccc1OCCOC1CC(C(=O)O)C1` (stereo not drawn) [Example 48, 3-[2-[4-(8-chloro-4-oxo-chromen-2-yl)-2-isopropyl-phenoxy]ethoxy]cyclobutanecarboxylic acid] as the compound, how does the IC50 read?
The IC50 was 7.68 µM.

Which IC50 does the source give for `CC(C)Oc1ccc(Cl)c2oc(-c3ccc(OCCO[C@H]4C[C@@H](C(=O)O)C4)cc3)cc(=O)c12` [Example 27, Cis-3-[2-[4-(8-chloro-5-isopropoxy-4-oxo-chromen-2-yl)phenoxy]ethoxy]cyclobutanecarboxylic acid] here?
The IC50 was 7.68 µM.

How did the IC50 turn out when `O=C(O)C1CC(OCCOc2ccc(-c3cc(=O)c4ccc(C5CC5)c(Cl)c4o3)cc2)C1` (stereo not drawn) [Example 70, 3-[2-[4-(8-chloro-7-cyclopropyl-4-oxo-chromen-2-yl)phenoxy]ethoxy]cyclobutanecarboxylic acid] was run?
Its IC50 is 17.2 µM.

With `CCOC(=O)COCCOc1ccc(-c2cc(=O)c3ccc(Br)c(Cl)c3o2)cc1` [Example 71, ethyl 2-[2-[4-(7-bromo-8-chloro-4-oxo-chromen-2-yl)phenoxy]ethoxy]acetate] as the compound, how does the IC50 read?
Its IC50 is 9.3 µM.

How did the IC50 turn out when `O=C(O)C1CC(OCCOc2ccc(-c3oc4c(Cl)cccc4c(=O)c3Br)cc2)C1` (stereo not drawn) [Example 64, 3-[2-[4-(3-bromo-8-chloro-4-oxo-chromen-2-yl)phenoxy]ethoxy]cyclobutanecarboxylic acid] was run?
The IC50 was 5.5 µM.

With `O=C(O)C1CC(OCCOc2ccc(-c3cc(=O)c4cccc(Cl)c4o3)c(N3CCOCC3)c2)C1` (stereo not drawn) [Example 60, 3-[2-[4-(8-chloro-4-oxo-chromen-2-yl)-3-morpholino-phenoxy]ethoxy]cyclobutanecarboxylic acid] as the compound, how does the IC50 read?
The IC50 was 4.84 µM.

`O=C(O)C1CC(OCCOc2ccc(-c3cc(=O)c4cc(N5CCCC5=O)cc(Cl)c4o3)cc2)C1` (stereo not drawn) [Example 68, 3-[2-[4-[8-chloro-4-oxo-6-(2-oxopyrrolidin-1-yl)chromen-2-yl]phenoxy]ethoxy]cyclobutanecarboxylic acid] was tested. Which IC50 did it give?
Its IC50 is 10.1 µM.

For `N#Cc1cc(Cl)c2oc(-c3ccc(OCCOC4CC(C(=O)O)C4)cc3)cc(=O)c2c1` (stereo not drawn) [Example 22, 3-[2-[4-(8-chloro-6-cyano-4-oxo-chromen-2-yl)phenoxy]ethoxy]cyclobutanecarboxylic acid], which IC50 is on record?
The IC50 was 13 µM.

How did the IC50 turn out when `Cc1ccc(Cl)c2oc(-c3ccc(OCCO[C@H]4C[C@@H](C(=O)O)C4)cc3)cc(=O)c12` [Example 31, Cis-3-[2-[4-(8-chloro-5-methyl-4-oxo-chromen-2-yl)phenoxy]ethoxy]cyclobutanecarboxylic acid] was run?
The IC50 was 0.78 µM.

Same assay, conditions: read-out: IC50 (HBeAg) in HepDES19 primary screen assay; HepDES19 cells, 5 days incubation with compound, HBeAg by ELISA

With `O=C(O)[C@H]1C[C@H]1OCCOc1ccc(-c2cc(=O)c3cccc(Cl)c3o2)cc1` (single isomer, unassigned) [Example 5-A, 2-[2-[4-(8-chloro-4-oxo-chromen-2-yl)phenoxy]ethoxy]cyclopropanecarboxylic acid] as the compound, how does the IC50 read?
The IC50 was 1.36 µM.

How did the IC50 turn out when `O=C(O)C1CC(OCCOc2ccc(-c3cc(=O)c4ccc(C5CC5)c(Cl)c4o3)cc2)C1` (single isomer, unassigned) [Example 70-A, 3-[2-[4-(8-chloro-7-cyclopropyl-4-oxo-chromen-2-yl)phenoxy]ethoxy]cyclobutanecarboxylic acid] was run?
The IC50 was 19.8 µM.

For `COC(=O)C1CC(OCCOc2ccc(-c3oc4c(Cl)cc(F)cc4c(=O)c3OC(F)(F)F)cc2)C1` (single isomer, unassigned) [Example 62-B, methyl 3-[2-[4-[8-chloro-6-fluoro-4-oxo-3-(trifluoromethoxy)chromen-2-yl]phenoxy]ethoxy]cyclobutanecarboxylate], which IC50 is on record?
The IC50 was 1.32 µM.

`O=c1cc(-c2ccc(OCCO[C@H]3CC[C@@H](C(=O)O)CC3)cc2)oc2c(Cl)cccc12` (single isomer, unassigned) [Example 7-B, 4-[2-[4-(8-chloro-4-oxo-chromen-2-yl)phenoxy]ethoxy]cyclohexanecarboxylic acid] was tested. Which IC50 did it give?
The IC50 was 19.7 µM.
